Values after ≈ are worked out from the molar mass of the structure shown.
Tests used:
[1] = target: T1, Recombinant human soluble guanylate cyclase (sGC), alpha 1 / beta 1 subunits, heme-free (Homo sapiens, UniProt Q02108+Q02153); assay: Molecular assay: cGMP formation by heme-free recombinant sGC (CisBio cGMP detection kit); format: biochemical; conditions: 300 pM heme-free sGC, 37° C., 60 min, cGMP readout; read-out: EC50 nM, Activity of Compounds in Molecular Assay
T1 construct: histidine tag (C); made in house; host or cells: Sf9 insect cells (baculovirus coinfection)
T1 sequence (Q02108 1-690 partner): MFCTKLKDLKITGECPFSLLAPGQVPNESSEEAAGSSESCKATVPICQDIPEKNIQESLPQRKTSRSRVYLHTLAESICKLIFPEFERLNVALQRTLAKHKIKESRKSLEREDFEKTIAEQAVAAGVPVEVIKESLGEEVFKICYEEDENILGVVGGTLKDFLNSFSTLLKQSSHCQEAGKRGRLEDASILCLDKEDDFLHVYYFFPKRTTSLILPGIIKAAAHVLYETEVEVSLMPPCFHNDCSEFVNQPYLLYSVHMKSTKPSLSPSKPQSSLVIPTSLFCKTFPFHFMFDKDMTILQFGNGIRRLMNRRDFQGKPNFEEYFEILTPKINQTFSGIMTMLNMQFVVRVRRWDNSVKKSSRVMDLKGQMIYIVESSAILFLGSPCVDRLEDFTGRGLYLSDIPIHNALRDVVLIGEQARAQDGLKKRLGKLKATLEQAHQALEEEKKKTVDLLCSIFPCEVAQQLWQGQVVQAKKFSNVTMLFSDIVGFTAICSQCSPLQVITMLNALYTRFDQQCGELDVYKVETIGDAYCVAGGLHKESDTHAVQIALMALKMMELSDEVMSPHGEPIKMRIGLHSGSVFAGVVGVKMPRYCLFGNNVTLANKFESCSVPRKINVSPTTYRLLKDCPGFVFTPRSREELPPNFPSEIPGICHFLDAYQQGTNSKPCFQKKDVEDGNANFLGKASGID
T1 sequence (Q02153 1-619): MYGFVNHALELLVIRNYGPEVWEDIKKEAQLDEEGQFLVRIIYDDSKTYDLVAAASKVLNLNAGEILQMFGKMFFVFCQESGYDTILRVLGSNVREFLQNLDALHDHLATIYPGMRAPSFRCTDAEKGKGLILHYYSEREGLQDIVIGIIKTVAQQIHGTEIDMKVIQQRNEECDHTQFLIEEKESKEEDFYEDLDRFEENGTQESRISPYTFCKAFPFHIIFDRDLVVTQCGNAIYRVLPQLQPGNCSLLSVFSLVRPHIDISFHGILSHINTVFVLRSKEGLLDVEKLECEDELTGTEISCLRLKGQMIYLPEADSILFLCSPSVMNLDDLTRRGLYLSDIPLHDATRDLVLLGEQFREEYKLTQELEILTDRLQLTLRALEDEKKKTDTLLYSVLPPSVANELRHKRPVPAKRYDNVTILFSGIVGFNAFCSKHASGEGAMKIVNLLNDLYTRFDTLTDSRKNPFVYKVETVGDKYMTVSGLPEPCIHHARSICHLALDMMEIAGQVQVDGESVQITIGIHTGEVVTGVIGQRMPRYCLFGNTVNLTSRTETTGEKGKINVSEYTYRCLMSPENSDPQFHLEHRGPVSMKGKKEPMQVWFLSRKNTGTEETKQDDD
Method: Recombinant human soluble guanylate cyclase (sGC) is purified from Sf9 insect cells coinfected with baculoviruses expressing the alpha 1 or beta 1 subunit of sGC, both with a C-terminal histidine tag. Heme-free sGC is prepared by treating cell lysate with a final concentration of 0.5% Tween 20 prior to purification on a nickel affinity column.
sGC catalyzes the conversion of guanosine-5′-triphosphate (GTP) to cyclic guanosine monophosphate (cGMP). The activity of sGC is measured in vitro using the commercially available CisBio cGMP detection kit (catalog # 62GM2PEB) in a 384 well format. In brief, 300 pM heme-free sGC is incubated in reaction buffer (50 mM MOPS pH 6.8, 0.2 N KOH, 50 mM NaCl, 2 mM MgCl2, 0.1% BSA, 1.25 mM IBMX, 0.25 mM TCEP, 50 nM GTP) in the presence or absence of dilutions of test compounds diluted in DMSO (final concentration of 1%) in a volume of 10 microL at 37° C. for 60 min. Undiluted reaction products or an 80-fold dilution of reaction products (10 microL of either) prepared in reaction buffer containing 0.2 mM TCEP and 10 mM EDTA is mixed with 5 microL of d2-cGMP plus 5 microL of Eu^3+ cryptate-labeled anti-cGMP, each diluted in buffer containing 0.1 M KPO4 pH 7.5, 0.4 M KF, 20 mM EDTA, 0.2% BSA. After a one h incubation at room temperature in the dark, the mixtures are quantified on an EnVision plate reader (PerkinElmer) according to manufacturer instructions (laser excitation 337 nm, emission 620 and 665 nm). The ratio at each compound concentration is converted to nM cGMP using the linear portion of a calibration curve. Log compound concentration is plotted against combined undiluted and diluted nM cGMP values to determine the EC50 for each curve.

[2] = Assessment of solubility: HT solubility in pION buffer, UV spectrophotometry; conditions: 16-19 h incubation, 1.0% DMSO; for solubility: pION system solution buffer, kinetic from dmso stock
[3] = pH 4.5, pH 4.5, aqueous buffer, Solubility (pH 4.5), pH 4.5 buffer
[4] = pH 7.4, pH 7.4, aqueous buffer, Solubility (pH 7.4), pH 7.4 buffer

Question: For N#Cc1cc(CN2CCOCC2)ccc1COc1c(Cl)cccc1-c1csc(N2CCC(C(=O)O)CC2)n1 [Compound 81], which EC50 [1] is on record?
Answer: The EC50 was 70 nM.

Question: What about the solubility [2, 3] of the same compound?
Answer: The solubility was 36 µg/mL (≈ 65.1 µM).

Question: And the solubility [2, 4]?
Answer: The solubility was 38 µg/mL (≈ 68.7 µM).

Question: Which EC50 [1] does the source give for Cc1cc(C(=O)N2CCCCC2)ccc1COc1ccccc1-c1csc(N2CCC(C(=O)O)C(C(F)(F)F)C2)n1 (stereo not drawn) [Compound 127] here?
Answer: The EC50 was 400 nM.

Question: And the solubility [2, 3]?
Answer: The solubility was 0.2 µg/mL (≈ 0.34 µM).

Question: What about the solubility [2, 4] of the same compound?
Answer: Its solubility is > 58 µg/mL.

Question: With Cc1cccc(-c2csc(N3CCC(C(=O)O)CC3)n2)c1OCc1ccc(CN2CCOCC2)cc1C#N [Compound 36] as the compound, how does the EC50 [1] read?
Answer: Its EC50 is 140 nM.

Question: What about the solubility [2, 3] of the same compound?
Answer: Its solubility is > 64 µg/mL.

Question: And the solubility [2, 4]?
Answer: Its solubility is > 64 µg/mL.

Question: With Cc1cc(C(=O)N2CCCCC2)ccc1COc1ccc(F)cc1-c1csc(N2CCC(C(=O)O)C(C)C2)n1 (stereo not drawn) [Compound 1] as the compound, how does the EC50 [1] read?
Answer: Its EC50 is 60 nM.

Question: And the solubility [2, 3]?
Answer: The solubility was 0.85 µg/mL (≈ 1.54 µM).

Question: What about the solubility [2, 4] of the same compound?
Answer: The solubility was > 100 µg/mL.

Question: Which EC50 [1] does the source give for Cc1ccc(OCc2ccc(CN3CCN(C(=O)N(C)C)CC3)cc2C)c(-c2csc(N3CCC(C(=O)O)CC3)n2)c1 [Compound 199] here?
Answer: The EC50 was 140 nM.

Question: What about the solubility [2, 3] of the same compound?
Answer: Its solubility is > 59 µg/mL.

Question: What about the solubility [2, 4] of the same compound?
Answer: The solubility was > 59 µg/mL.

Question: For Cc1cc(CN2CCS(=O)(=O)CC2)ccc1COc1ccccc1-c1csc(N2CCC(C(=O)O)C(C)C2)n1 (stereo not drawn) [Compound 107], which EC50 [1] is on record?
Answer: The EC50 was 71 nM.

Question: What about the solubility [2, 3] of the same compound?
Answer: The solubility was 0.65 µg/mL (≈ 1.14 µM).

Question: What about the solubility [2, 4] of the same compound?
Answer: The solubility was > 56 µg/mL.

Question: What does the source list for Cc1cc(C(=O)N2CCCCC2)ccc1COc1ccc(Cl)cc1-c1csc(C2=CCC(C(=O)O)CC2)n1 (stereo not drawn) [Compound 76]?
Answer: EC50 [1]: 600 nM; Solubility (pH 4.5) ([2]; pH 4.5 buffer): 0.1 μg/mL; solubility [2, 4]: 4.1 µg/mL (≈ 7.44 µM)

Question: For Cc1cc(CN2CCOCC2)ccc1COc1ccccc1-c1csc(N2CCC(C(=O)O)CC2)n1 [Compound 166], which EC50 [1] is on record?
Answer: The EC50 was 520 nM.

Question: What about the solubility [2, 3] of the same compound?
Answer: The solubility was > 55 µg/mL.

Question: And the solubility [2, 4]?
Answer: The solubility was > 55 µg/mL.

Question: Which results are given for Cc1ccc(OCc2ccc(CN3CCN(S(=O)(=O)N(C)C)CC3)cc2C)c(-c2csc(N3CCC(C(=O)O)CC3)n2)c1 [Compound 200]?
Answer: EC50 [1]: 80 nM; solubility [2, 3]: 8.5 µg/mL (≈ 13.5 µM); solubility [2, 4]: 30 µg/mL (≈ 47.8 µM)

Question: Which results are given for Cc1cc(CN2CCS(=O)(=O)CC2)ccc1COc1ccccc1-c1csc(N2CC3CCC(C2)C3C(=O)O)n1 (stereo not drawn) [Compound 121]?
Answer: EC50 [1]: 280 nM; solubility [2, 3]: 3.3 µg/mL (≈ 5.67 µM); solubility [2, 4]: > 58 µg/mL

Question: With Cc1ccc(OCc2ccc(CN3CCOCC3)cc2C)c(-c2csc(N3CC4C(C3)C4C(=O)O)n2)c1 (stereo not drawn) [Compound 14] as the compound, how does the EC50 [1] read?
Answer: Its EC50 is 4700 nM.

Question: What about the solubility [2, 3] of the same compound?
Answer: The solubility was > 63 µg/mL.

Question: And the solubility [2, 4]?
Answer: Its solubility is > 63 µg/mL.

Question: Which results are given for Cc1ccc(OCc2ccc(CN3CCOCC3)cc2C)c(-c2csc(N3CCCC(C(=O)O)CC3)n2)c1 (stereo not drawn) [Compound 52]?
Answer: EC50 [1]: 39 nM; solubility [2, 3]: > 58 µg/mL; solubility [2, 4]: > 58 µg/mL

Question: Which EC50 [1] does the source give for Cc1ccc(OCc2ccc(C(=O)N3CCCCC3)cc2C)c(-c2csc([C@H]3CC[C@H](C(=O)O)CC3)n2)c1 [Compound 38] here?
Answer: The EC50 was 1700 nM.

Question: What about the solubility [2, 3] of the same compound?
Answer: The solubility was 0.25 µg/mL (≈ 0.469 µM).

Question: What about the solubility [2, 4] of the same compound?
Answer: Its solubility is > 53 µg/mL.

Question: For Cc1ccc(OCc2ccc(C(=O)N3CCCCC3)cc2C)c(-c2csc(N3CCC(C(=O)O)CC3C(F)(F)F)n2)c1 (stereo not drawn) [Compound 141], which EC50 [1] is on record?
Answer: Its EC50 is 3.9 nM.

Question: And the solubility [2, 3]?
Answer: The solubility was 0.2 µg/mL (≈ 0.332 µM).

Question: And the solubility [2, 4]?
Answer: Its solubility is > 60 µg/mL.

Question: With Cc1ccc(OCc2ccc(C(=O)N3CCCC3)cc2C)c(-c2csc(N3CCC(C(=O)O)CC3)n2)c1 [Compound 13] as the compound, how does the EC50 [1] read?
Answer: The EC50 was 120 nM.

Question: And the “Solubility (pH 4.5)” value ([2]; pH 4.5 buffer)?
Answer: The value was 17 μg/mL.

Question: What about the “Solubility (pH 7.4)” value ([2]; pH 7.4 buffer) of the same compound?
Answer: Its value is >51 μg/mL.

Question: With Cc1ccc(OCc2ccc(CN3CCOCC3)cc2C)c(-c2csc(N3CC4CCC(C3)C4C(=O)O)n2)c1 (stereo not drawn) [Compound 74] as the compound, how does the EC50 [1] read?
Answer: Its EC50 is 27 nM.

Question: What about the solubility [2, 3] of the same compound?
Answer: Its solubility is 40 µg/mL (≈ 73 µM).

Question: And the solubility [2, 4]?
Answer: Its solubility is 42 µg/mL (≈ 76.7 µM).

From patent US8815857B2 (Boehringer Ingelheim International GmbH, priority 2011, dated 2014)
